“And” between values parts separate entries of the source, which are not always exact repeats. Equal values may be shown once.
Assays:
patients with RLS [1] = experiment: Case reports: oral ketamine in patients with RLS (Examples 1-6); assay type: in vivo, human; details: for earlier treatment / earlier treatment of back pain, neurogenic claudication and RLS: before ketamine
Method: A patient presented with a history of back pain, neurogenic claudication, and RLS. Treatment with the dopaminergic agonist, pergolide and oxycodone had been ineffective. In addition to RLS, the patient's past history included prior spinal surgery, insulin-dependent diabetes mellitus, sleep apnea, and congestive heart failure. Their family history was positive for RLS.
The patient was prescribed amitriptyline 25 mg at bedtime and gabapentin 300 mg three times daily in addition to their other medications.
After consenting to the evaluation of single dose efficacy of oral ketamine, the patient received 30 mg of ketamine mixed in 50 cc (or ml) of water. After 20 minutes of observation, the patient noted that their VAS score had improved to 2/10.
A patient with a history of chronic lower back pain, spinal stenosis, scoliosis, and RLS complained of worsening neurogenic claudication. Their VAS was 7/10.
The patient was then treated with 50 mg of oral ketamine.
A patient presented with a history of cardiac transplant, on immune suppressive medication, could not be treated with steroids for with spinal stenosis, neurogenic claudication, and RLS.
A patient presented with a history of multiple back surgeries and depression. […] Opioids were restarted to control the return of the patient's back pain.
A patient presented with a history of a renal transplant with documented lumbar radiculopathy and severe RLS on immunosuppressive treatment. The RLS symptoms were so severe that the patient could not keep their legs still at their initial office visit. […] While the RLS remitted during 4 months of treatment with 25 mg of ketamine daily, opioids were added to the treatment for pain control.
A dialysis patient presented with a history of failed back surgery, spinal stenosis and severe leg pain which responded to treatment with methadone but maintained severe RLS where the patient was not able to sleep more than 2 hours/night.

patients with RLS [2] = experiment: Patients treated with doses of oral ketamine (Examples 7-23, Table); assay type: in vivo, human
Method: In the Table shown below, patients were treated with doses of oral ketamine.
(§1) The patients, shown in Examples 7-23, were treated with doses of liquid oral ketamine or oral ketamine in tablet form. There were no patients who had serum levels of ketamine measured that reached the levels reported for therapeutic analgesic effect of ketamine, i.e., 200 ng/ml.

[3] = Serum levels of ketamine in patients treated with low doses of oral ketamine; assay type: in vivo, human
Method: Also, it is suitable that the dose of ketamine administered is less than the dose generally administered for alleviation of pain. For example, since only about 20% of an oral dose of ketamine is absorbed, the successful treatment of a patient with 2 mg of ketamine for RLS over a 24 hour period would equal less than 0.001 mg/kg/hour. At these doses, the threshold serum level for pyschotomimetic side effects (on the order of 50 ng/ml) is not reached. Moreover, the threshold serum level for pain relief (on the order of 200 ng/ml) is also not approached. […] Thus, the serum levels at which oral ketamine acts to relieve RLS are substanitially lower than those reported for pain relief. Treatment with low dosages of oral ketamine provides relief for subjects suffering from or affected by RLS by alleviating symptoms associated with RLS, and avoids the side effects generally encountered in the use of ketamine for the treatment of conscious patients and/or other therapies for RLS described above.
as §1

[4] = cited from earlier work
NMDA receptor = details: primary metabolite of oral ketamine; cited from earlier work
[5] = Example 1, amitriptyline 25 mg at bedtime and gabapentin 300 mg three times daily together, a month later
[6] = Example 3, oral 20 mg at bedtime
[7] = one patient per row (Examples 7-23), oral ketamine 10-100 mg/24 hours (col I), treatment 1-8 months (col G)

CN(C)CCC=C1c2ccccc2CCc2ccccc21 [amitriptyline]
symptoms (patients with RLS [1]; [5]): no improvement in their symptoms | verbal analog pain score (VAS) (patients with RLS [1]; [5]): 6/10

NCC1(CC(=O)O)CCCCC1 [gabapentin]
symptoms (patients with RLS [1]; [5]): no improvement in their symptoms | verbal analog pain score (VAS) (patients with RLS [1]; [5]): 6/10 | earlier treatment (patients with RLS [1]; Example 2): without success

CNC1(c2ccccc2Cl)CCCCC1=O (centres unmarked) [ketamine, (2-o-chlorophenyl)-2-(methylamino)-cyclohexanone]
verbal analog pain score (VAS) (patients with RLS [1]; Example 1, person, single oral dose 30 mg ketamine in 50 cc water, after 20 minutes, VAS before 6/10): 2/10 | sleep and RLS (patients with RLS [1]; Example 1, oral 30 mg twice a day for 6 months): improvement in sleep and RLS | side effects after single dose (patients with RLS [1]; Example 1, single oral dose 30 mg): no dizziness, or other distressing symptoms | VAS (patients with RLS [1]; Example 2, person, 50 mg oral ketamine, within 15 minutes, VAS before 7/10): 2/10 | walking (patients with RLS [1]; Example 2, 50 mg oral ketamine, within 15 minutes): subjective improvement in walking | sleep and RLS symptoms (patients with RLS [1]; Example 2, oral 40 mg twice a day, a month following the trial): significant improvement in their sleep and RLS symptoms | pain relief (patients with RLS [1]; [6]): no pain relief | side effects (patients with RLS [1]; [6]): psychotomimetic side effects | RLS (patients with RLS [1]; Example 3, oral 20 mg at bedtime, persisted after ketamine was stopped): resolution of RLS | RLS symptoms and sleep (patients with RLS [1]; Example 4, oral daily 25 mg): lessened RLS symptoms and improved sleep | pain and RLS (patients with RLS [1]; Example 5, renal transplant patient, oral daily 10 mg): pain relief and resolution of RLS | RLS (patients with RLS [1]; Example 5, 25 mg daily, 4 months of treatment): RLS remitted | reduction of RLS symptoms (patients with RLS [1]; Example 6, dialysis patient, 2 mg oral at bedtime): more than 50% | tolerability (psychotomimetic effects) (patients with RLS [1]; Example 6, dialysis patient, 20 mg daily oral): could not tolerate | psychotomimetic side effects (patients with RLS [1]; Example 6, 2 mg oral at bedtime): no psychotomimetic side effects | sleep duration (patients with RLS [1]; Example 6, 2 mg oral at bedtime, before not more than 2 hours/night): more than 4.5 hrs./night | F = VAS or visual analog scale for pain/walking ability (improvement) (patients with RLS [2]; [7]): 80% (4×) and 60% (5×) and 90% and 70% (4×) and 50% (2×) and 40% | J = complications (patients with RLS [2]; [7]): No (14×) and Yes (2×) and Rash | RLS symptoms (patients with RLS [2]; patients of Examples 7-23, low ketamine dosage): improved related limb sensations, motor restlessness and insomnia | serum levels of ketamine ([3]; patients of Examples 7-23 who had serum levels measured, liquid or tablet oral ketamine): < 200 ng/mL | serum levels of ketamine ([3]; patients treated with low doses of oral ketamine for RLS, commercially available tests): not to have detectable serum levels | threshold serum level for pain relief ([4]; in vivo): ~200 ng/mL | fraction of an oral dose absorbed ([4]; oral): about 20%

CCC(=O)C(CC(C)N(C)C)(c1ccccc1)c1ccccc1 (centres unmarked) [methadone]
severe leg pain (patients with RLS [1]; Example 6, dialysis patient, severe RLS maintained): responded

NC1(c2ccccc2Cl)CCCCC1=O (centres unmarked) [norketamine]
potency relative to ketamine (NMDA receptor): one-third to one-fifth

COc1ccc2c3c1O[C@H]1C(=O)CC[C@@]4(O)[C@@H](C2)N(C)CC[C@]314 [oxycodone]
earlier treatment of back pain, neurogenic claudication and RLS (patients with RLS [1]; Example 1): ineffective

CCCN1C[C@H](CSC)C[C@@H]2c3cccc4[nH]cc(c34)C[C@H]21 [pergolide]
earlier treatment of back pain, neurogenic claudication and RLS (patients with RLS [1]; Example 1): ineffective

C=C[C@H]1C[N@@]2CC[C@H]1C[C@H]2[C@H](O)c1ccnc2ccc(OC)cc12 [quinine]
earlier treatment (patients with RLS [1]; Example 2): without success

CS(=O)(=O)c1ccc(C2=C(c3ccccc3)C(=O)OC2)cc1 [rofecoxib]
earlier treatment (patients with RLS [1]; Example 2): without success

COc1cccc(C2(O)CCCCC2CN(C)C)c1 (centres unmarked) [tramadol]
earlier treatment (patients with RLS [1]; Example 2): without success

Reference: patent US6855735B2, “Ketamine treatment of restless legs syndrome” (Temple University of the Commonwealth System of Higher …, priority 2002, dated 2005)
